Source: the supplement of paper PMC10307832

Key:
Experiment in all cases: relative viability (nuclei count vs DMSO), 5 days (fraction); higher = more cells survive
Selumetinib + Foretinib = compound: Cn1cnc2c(F)c(Nc3ccc(Br)cc3Cl)c(C(=O)NOCCO)cc21 [Selumetinib] + COc1cc2c(Oc3ccc(NC(=O)C4(C(=O)Nc5ccc(F)cc5)CC4)cc3F)ccnc2cc1OCCCN1CCOCC1 [Foretinib] (partner 0.25 µM)
Summary of the method: (§1)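 For relative viability, nuclei counts in treated wells were divided by those in vehicle wells. Lung cancer cell lines had been pin-tool dosed in 1536-well plates the day after seeding and cultured for 5 days, then fixed and stained in one step (final 0.05% Triton X-100, 1% formaldehyde, 1 ug/ml Hoechst) and imaged at 4×. Doses were one drug alone or a fixed anchor-drug dose plus five library-drug doses (not always all listed) in √10 steps, and values are duplicate-plate medians.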

Selumetinib + Pemetrexed = compound: Cn1cnc2c(F)c(Nc3ccc(Br)cc3Cl)c(C(=O)NOCCO)cc21 [Selumetinib] + Nc1nc2[nH]cc(CCc3ccc(C(=O)N[C@@H](CCC(=O)O)C(=O)O)cc3)c2c(=O)[nH]1 [Pemetrexed] (partner 0.2 µM)
Summary of the method: as §1

Venetoclax + Pemetrexed = compound: CC1(C)CCC(CN2CCN(c3ccc(C(=O)NS(=O)(=O)c4ccc(NCC5CCOCC5)c([N+](=O)[O-])c4)c(Oc4cnc5[nH]ccc5c4)c3)CC2)=C(c2ccc(Cl)cc2)C1 [Venetoclax] + Nc1nc2[nH]cc(CCc3ccc(C(=O)N[C@@H](CCC(=O)O)C(=O)O)cc3)c2c(=O)[nH]1 [Pemetrexed] (partner 0.2 µM)
Summary of the method: as §1

Selumetinib + Trametinib = compound: Cn1cnc2c(F)c(Nc3ccc(Br)cc3Cl)c(C(=O)NOCCO)cc21 [Selumetinib] + CC(=O)Nc1cccc(-n2c(=O)n(C3CC3)c(=O)c3c(Nc4ccc(I)cc4F)n(C)c(=O)c(C)c32)c1 [Trametinib] (partner 0.02 µM)
Summary of the method: as §1

| Cell Line | relative viability (Selumetinib + Foretinib; first compound 0.02 µM) | relative viability (Selumetinib + Foretinib; first compound 0.06325 µM) | relative viability (Selumetinib + Foretinib; first compound 0.2 µM) | relative viability (Selumetinib + Foretinib; first compound 0.6325 µM) | relative viability (Selumetinib + Pemetrexed; first compound 0.02 µM) | relative viability (Selumetinib + Pemetrexed; first compound 0.06325 µM) | relative viability (Selumetinib + Pemetrexed; first compound 0.2 µM) | relative viability (Selumetinib + Pemetrexed; first compound 0.6325 µM) | relative viability (Venetoclax + Pemetrexed; first compound 0.01 µM) | relative viability (Venetoclax + Pemetrexed; first compound 0.03162 µM) | relative viability (Venetoclax + Pemetrexed; first compound 0.1 µM) | relative viability (Venetoclax + Pemetrexed; first compound 0.3162 µM) | relative viability (Venetoclax + Pemetrexed; first compound 1 µM) | relative viability (Selumetinib + Trametinib; first compound 0.02 µM) | relative viability (Selumetinib + Trametinib; first compound 0.06325 µM) | relative viability (Selumetinib + Trametinib; first compound 0.2 µM) | relative viability (Selumetinib + Trametinib; first compound 0.6325 µM) |
| --- | --- | --- | --- | --- | --- | --- | --- | --- | --- | --- | --- | --- | --- | --- | --- | --- | --- |
| HCC-15 | 0.777 | 0.637 | 0.439 | 0.293 | 0.194 | 0.221 | 0.203 | 0.214 | 0.24 | 0.236 | 0.217 | 0.217 | 0.201 | 0.403 | 0.426 | 0.332 | 0.333 |
| NCI-H2228 | 0.81 | 0.802 | 0.807 | 0.623 | 0.375 | 0.394 | 0.333 | 0.33 | 0.341 | 0.331 | 0.36 | 0.272 | 0.343 | 0.513 | 0.328 | 0.554 | 0.393 |
| NCI-H1650 | 0.992 | 0.888 | 0.842 | 0.928 | 0.304 | 0.338 | 0.331 | 0.295 | 0.343 | 0.361 | 0.405 | 0.431 | 0.356 | 0.522 | 0.458 | 0.531 | 0.577 |
| NCI-H2342 | 0.922 | 1.09 | 0.961 | 0.981 | 0.778 | 0.7 | 0.758 | 0.839 | 0.872 | 0.784 | 0.747 | 0.738 | 0.717 | 0.838 | 0.835 | 0.789 | 0.975 |
| NCI-H1975 | 0.992 | 1.09 | 1.03 | 0.724 | 0.288 | 0.309 | 0.302 | 0.283 | 0.261 | 0.279 | 0.276 | 0.309 | 0.281 | 0.332 | 0.34 | 0.37 | 0.31 |
| ChaGo-K-1 | 0.833 | 0.924 | 0.906 | 0.769 | 0.258 | 0.258 | 0.275 | 0.256 | 0.257 | 0.26 | 0.255 | 0.26 | 0.263 | 0.908 | 0.891 | 0.897 | 0.92 |
| NCI-H727 | 0.468 | 0.434 | 0.329 | 0.352 | – | – | – | – | – | – | – | – | – | 0.348 | 0.367 | 0.421 | 0.381 |
| COR-L23 | 0.999 | 1.01 | 0.933 | 0.934 | 0.202 | 0.217 | 0.21 | 0.194 | 0.181 | 0.177 | 0.189 | 0.199 | 0.197 | 0.555 | 0.469 | 0.586 | 0.511 |
| A549 | 0.779 | 0.581 | 0.546 | 0.32 | – | – | – | – | – | – | – | – | – | – | – | – | – |
| NCI-H1703 | 0.438 | 0.318 | 0.369 | 0.32 | – | – | – | – | – | – | – | – | – | – | – | – | – |
| NCI-H1563 | 0.879 | 0.955 | 0.903 | 0.824 | 0.835 | 0.778 | 0.918 | 0.898 | 0.847 | 0.902 | 0.798 | 0.744 | 0.888 | – | – | – | – |
| IA-LM | 0.949 | 0.837 | 0.576 | 0.403 | – | – | – | – | – | – | – | – | – | – | – | – | – |
| NCI-H1648 | – | – | – | – | – | 0.838 | 0.956 | 0.904 | – | 0.774 | 0.64 | 0.626 | 0.718 | – | 0.503 | 0.443 | 0.499 |
